Assay results: the supplement of paper PMC10307832

Key:
Assay in all cases: relative viability (nuclei count vs DMSO), 5 days (fraction); higher = more cells survive
[1] = compound: C1COCCN1C2=NC(=NC3=C2OC4=C3C=CC=N4)C5=CC(=CC=C5)NC(=O)C6=CN=C(C=C6)N + Cc1cc(Nc2cc(N3CCN(C)CC3)nc(Sc3ccc(NC(=O)C4CC4)cc3)n2)n[nH]1 [Tozasertib] (partner 0.1 µM)
Summary of the method: (§1)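 For relative viability, nuclei counts in treated wells were divided by those in vehicle wells. Lung cancer cell lines had been pin-tool dosed in 1536-well plates the day after seeding and cultured for 5 days, then fixed and stained in one step (final 0.05% Triton X-100, 1% formaldehyde, 1 ug/ml Hoechst) and imaged at 4×. Doses were one drug alone or a fixed anchor-drug dose plus five library-drug doses (not always all listed) in √10 steps, and values are duplicate-plate medians.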

Entinostat + Bortezomib = compound: Nc1ccccc1NC(=O)c1ccc(CNC(=O)OCc2cccnc2)cc1 [Entinostat] + CC(C)C[C@H](NC(=O)[C@H](Cc1ccccc1)NC(=O)c1cnccn1)B(O)O [Bortezomib] (partner 0.002 µM)
Summary of the method: as §1

Entinostat + Pictilisib = compound: Nc1ccccc1NC(=O)c1ccc(CNC(=O)OCc2cccnc2)cc1 [Entinostat] + CS(=O)(=O)N1CCN(Cc2cc3nc(-c4cccc5[nH]ncc45)nc(N4CCOCC4)c3s2)CC1 [Pictilisib] (partner 1 µM)
Summary of the method: as §1

Entinostat + Olaparib = compound: Nc1ccccc1NC(=O)c1ccc(CNC(=O)OCc2cccnc2)cc1 [Entinostat] + O=C(c1cc(Cc2n[nH]c(=O)c3ccccc23)ccc1F)N1CCN(C(=O)C2CC2)CC1 [Olaparib] (partner 8 µM)
Summary of the method: as §1

Row | Cell Line | relative viability ([1]; first compound 0.02 µM) | relative viability ([1]; first compound 0.06325 µM) | relative viability ([1]; first compound 0.2 µM) | relative viability ([1]; first compound 0.6325 µM) | relative viability ([1]; first compound 2 µM) | relative viability (Entinostat + Bortezomib; first compound 0.02 µM) | relative viability (Entinostat + Bortezomib; first compound 0.06325 µM) | relative viability (Entinostat + Bortezomib; first compound 0.2 µM) | relative viability (Entinostat + Bortezomib; first compound 0.6325 µM) | relative viability (Entinostat + Bortezomib; first compound 2 µM) | relative viability (Entinostat + Pictilisib; first compound 0.02 µM) | relative viability (Entinostat + Pictilisib; first compound 0.06325 µM) | relative viability (Entinostat + Pictilisib; first compound 0.2 µM) | relative viability (Entinostat + Pictilisib; first compound 0.6325 µM) | relative viability (Entinostat + Pictilisib; first compound 2 µM) | relative viability (Entinostat + Olaparib; first compound 0.02 µM) | relative viability (Entinostat + Olaparib; first compound 0.06325 µM) | relative viability (Entinostat + Olaparib; first compound 0.2 µM) | relative viability (Entinostat + Olaparib; first compound 0.6325 µM) | relative viability (Entinostat + Olaparib; first compound 2 µM)
1 | COR-L23 | 0.219 | 0.223 | 0.143 | 0.181 | 0.159 | 0.994 | 0.881 | 0.964 | 0.423 | 0.147 | 0.714 | 0.728 | 0.588 | 0.257 | 0.141 | 0.323 | 0.311 | 0.347 | 0.184 | 0.127
2 | EMC-BAC-2 | 0.302 | 0.289 | 0.26 | 0.299 | 0.303 | 1.11 | 1.16 | 1.1 | 0.898 | 0.516 | 0.579 | 0.595 | 0.628 | 0.352 | 0.289 | 0.48 | 0.444 | 0.388 | 0.3 | 0.23
3 | LCLC-97TM1 | 0.266 | 0.214 | 0.155 | 0.405 | 0.261 | 0.69 | 0.912 | 0.912 | 0.355 | 0.128 | 0.196 | 0.193 | 0.166 | 0.104 | 0.122 | 0.476 | 0.402 | 0.41 | 0.32 | 0.364
4 | NCI-H3122 | 0.404 | 0.47 | 0.341 | 0.364 | 0.289 | 0.951 | 1.07 | 1.06 | 0.869 | 1.01 | 0.648 | 0.663 | 0.678 | 0.441 | 0.298 | 0.653 | 0.622 | 0.604 | 0.517 | 0.452
5 | NCI-H2126 | 0.868 | 0.895 | 0.767 | 0.702 | 0.518 | 1.13 | 1.11 | 1.1 | 0.885 | 0.809 | 0.44 | 0.545 | 0.47 | 0.301 | 0.298 | 0.953 | 0.925 | 0.886 | 0.742 | 0.539
6 | NCI-H520 | 0.431 | 0.437 | 0.413 | 0.479 | 0.327 | 0.602 | 0.667 | 0.558 | 0.195 | 0.161 | 0.327 | 0.284 | 0.32 | 0.282 | 0.275 | 0.336 | 0.346 | 0.272 | 0.237 | 0.149
7 | LU99A | 0.277 | 0.276 | 0.231 | 0.21 | 0.173 | 1.02 | 1.26 | 1 | 0.801 | 0.784 | 0.289 | 0.326 | 0.334 | 0.271 | 0.231 | 0.236 | 0.264 | 0.274 | 0.198 | 0.164
8 | NCI-H1666 | 0.614 | 0.615 | 0.588 | 0.513 | 0.501 | 0.855 | 0.694 | 0.741 | 0.441 | 0.321 | 0.44 | 0.403 | 0.34 | 0.258 | 0.258 | 0.81 | 0.759 | 0.723 | 0.669 | 0.539
9 | NCI-H460 | 0.465 | 0.509 | 0.209 | 0.392 | 0.0489 | 1.09 | 1.05 | 0.85 | 0.0581 | 0.0179 | 0.328 | 0.411 | 0.333 | 0.132 | 0.108 | 0.37 | 0.328 | 0.137 | 0.0676 | 0.0406
